In patent US10703764B2, “Benzopiperazine compositions as BET bromodomain inhibitors” (FORMA Therapeutics, Inc., priority 2013, dated 2020) one finds IC50 data, which are given here for 42 compounds.

For assay [1], the target named is T1, BRD4 BD1 (Homo sapiens, UniProt O60885).
T1 construct: made in house
Description: AlphaScreen binding assay, BRD4 Bromodomain 1. In outline: (§1)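 Compound dilution series were mixed with His-tagged BRD4 bromodomain and biotinylated tetra-acetylated H4 (1-21) peptide at pH 7.3 (BD1 and peptide at 50 nM, BD2 and peptide at 100 nM). Donor and acceptor beads were then added, and plates were equilibrated at least 1 h before reading. IC50 values were fitted with a four-parameter logistic model.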
Background: In Alpha technology, singlet oxygen from a donor bead excites a nearby acceptor bead.

The target of assay [2] is T2, BRD4 BD2 (Homo sapiens, UniProt O60885).
T2 construct: made in house
Description: AlphaScreen binding assay, BRD4 Bromodomain 2. In outline:
as §1

For assay [3], the system named is MV4-11 cells. The experiment in a line: Oncology cell growth assay (3-day proliferation, CellTiter-Glo). The class given is cell-based. To be noted: Homo sapiens, MV4-11, 72 h, AML cell line MV4-11, 72 hours, compounds grouped by IC50 range, read-out: MV4-11 IC50 (inhibition of proliferation, gIC50). Put shortly:
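Compounds were serially diluted 3-fold in DMSO, giving final well concentrations from 10 down to 0.0045 μM. MV4-11 cells were then seeded at 3000 cells/well in RPMI 1640 with 10% FBS and incubated 72 hours. CellTiter-Glo signal was measured and gIC50 obtained by four-parameter logistic regression.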
In general terms: ATP-based viability assays read luminescence as a measure of living cells.

Turning to `COC(=O)N1c2ccc(-c3cnn(CC(=O)N(C)C4CC4)c3)cc2N(C(=O)OC(C)C)C[C@@H]1C` [Example I-625], the IC50 in assay [1] is 0.1 to 1 µM; in assay [2], 0.05 to 0.5 µM; in assay [3], over 0.5 µM.
In the case of `COC(=O)N1c2ccc(-c3cnn(CCN4CCCS4(=O)=O)c3)cc2N(C(=O)OC(C)C)C[C@@H]1C` [Example I-626], the IC50 was 0.1 to 1 µM in assay [1], 0.05 to 0.5 µM in assay [2] and over 0.5 µM in assay [3].
For the compound `COC(=O)N1c2ccc(-c3cnn(CCn4ccnc4)c3)cc2N(C(=O)OC(C)C)C[C@@H]1C` [Example I-627], the values for the IC50 in assay [1], in assay [2] and in assay [3] were 0.1 to 1 µM, 0.05 to 0.5 µM and over 0.5 µM, respectively.
For `COC(=O)N1c2ccc(-c3cnn(CCN4CCCC4=O)c3)cc2N(C(=O)OC(C)C)C[C@@H]1C` [Example I-628], the IC50 lay in the range of 0.1 to 1 µM in assay [1], 0.05 to 0.5 µM in assay [2] and 0.1 to 0.5 µM in assay [3].
For `COC(=O)N1c2ccc(-c3cnn(CC4(CO)COC4)c3)cc2N(C(=O)OC(C)C)C[C@@H]1C` [Example I-630], in that order: under 0.1 µM, 0.05 to 0.5 µM and 0.1 to 0.5 µM.
`COC(=O)N1c2ccc(-c3cnn(Cc4c[nH]cn4)c3)cc2N(C(=O)OC(C)C)CC1C` (stereo not drawn) [Example I-631]: the IC50 was 0.1 to 1 µM in assay [1], 0.05 to 0.5 µM in assay [2] and over 0.5 µM in assay [3].
Taken in the same sequence, the figures for `COC(=O)N1c2ccc(-c3cnn(Cc4cncnc4)c3)cc2N(C(=O)OC(C)C)C[C@@H]1C` [Example I-632] were 0.1 to 1 µM, 0.05 to 0.5 µM and 0.1 to 0.5 µM.
In the case of `COC(=O)N1c2ccc(-c3cnn(Cc4cnccn4)c3)cc2N(C(=O)OC(C)C)C[C@@H]1C` [Example I-633], the IC50 in assay [1] fell in the range of 0.1 to 1 µM; in assay [2], 0.05 to 0.5 µM; in assay [3], 0.1 to 0.5 µM.
For the compound `COC(=O)N1c2ccc(-c3cnn(Cc4c(C)noc4C)c3)cc2N(C(=O)OC(C)C)C[C@@H]1C` [Example I-634], the IC50 lay within 0.1 to 1 µM in assay [1], 0.05 to 0.5 µM in assay [2] and 0.1 to 0.5 µM in assay [3].
Taken in the same sequence, the figures for `COC(=O)N1c2ccc(-c3cnn(CC(F)(F)F)c3)cc2N(C(=O)OC(C)C)C[C@@H]1C` [Example I-636] were 0.1 to 1 µM, over 0.5 µM and over 0.5 µM.
Taken in the same sequence, the figures for `COC(=O)N1c2ccc(-c3cnn(CC4(C)COC4)c3)cc2N(C(=O)OC(C)C)C[C@@H]1C` [Example I-637] were 0.1 to 1 µM, 0.05 to 0.5 µM and 0.1 to 0.5 µM.
In the case of `COC(=O)N1c2ccc(-c3cnn(CCC(N)=O)c3)cc2N(C(=O)OC(C)C)C[C@@H]1C` [Example I-638], the IC50 is 0.1 to 1 µM in assay [1], 0.05 to 0.5 µM in assay [2] and over 0.5 µM in assay [3].
Taken in the same sequence, the figures for `COC(=O)N1c2ccc(-c3cnn(Cc4ccncc4)c3)cc2N(C(=O)OC(C)C)C[C@@H]1C` [Example I-640] were 0.1 to 1 µM, 0.05 to 0.5 µM and over 0.5 µM.
For `COC(=O)N1c2ccc(-c3cnn(CC4CCOCC4)c3)cc2N(C(=O)OC(C)C)C[C@@H]1C` [Example I-641], in that order: 0.1 to 1 µM, 0.05 to 0.5 µM and 0.1 to 0.5 µM.
With `CC(=O)N1c2ccc(-c3cnn(CC4COC4)c3)cc2N(C(=O)OC(C)C)C[C@@H]1C` [Example I-642], the IC50 was in the range of 0.1 to 1 µM in assay [1], 0.05 to 0.5 µM in assay [2] and 0.1 to 0.5 µM in assay [3].
Taken in the same sequence, the figures for `CC(C)OC(=O)N1C[C@H](C)N(C(=O)C2CC2)c2ccc(-c3cnn(CC4COC4)c3)cc21` [Example I-643] were 0.1 to 1 µM, 0.05 to 0.5 µM and 0.1 to 0.5 µM.
As to `COC(=O)N1c2ccc(-c3cnn(CC4COC4)c3)cc2N(C(=O)OC(C)C)C[C@@H]1C` [Example I-644], the IC50 in assay [1] was 0.1 to 1 µM; in assay [2], 0.05 to 0.5 µM; in assay [3] it was over 0.5 µM.
For `CC(=O)N1c2ccc(-c3cnn(C(C)C)c3)cc2N(C(=O)C2CC2)C[C@@H]1C` [Example I-647], in that order: 0.1 to 1 µM, 0.05 to 0.5 µM and over 0.5 µM.
Taken in the same sequence, the figures for `CC(=O)N1c2ccc(-c3cnn(CC4(F)COC4)c3)cc2N(C(=O)C2CC2)C[C@@H]1C` [Example I-649] were 0.1 to 1 µM, 0.05 to 0.5 µM and over 0.5 µM.
Taken in the same sequence, the figures for `CC(=O)N1c2ccc(-c3cnn(CCC#N)c3)cc2N(C(=O)C2CC2)C[C@@H]1C` [Example I-650] were 0.1 to 1 µM, 0.05 to 0.5 µM and 0.1 to 0.5 µM.
With `CC(=O)N1c2ccc(-c3cnn(CC(F)F)c3)cc2N(C(=O)C2CC2)C[C@@H]1C` [Example I-651], the IC50 is 0.1 to 1 µM in assay [1], 0.05 to 0.5 µM in assay [2] and over 0.5 µM in assay [3].
For `CC(=O)N1c2ccc(-c3cnn(Cc4ccnn4C)c3)cc2N(C(=O)C2CC2)C[C@@H]1C` [Example I-652], in that order: 0.1 to 1 µM, 0.05 to 0.5 µM and over 0.5 µM.
On to `CC(=O)N1c2ccc(-c3cnn(C(C)C)c3)cc2N(C(=O)OC(C)C)C[C@@H]1C` [Example I-653], for which the IC50 in assay [1] fell in the range of 0.1 to 1 µM; in assay [2] it was 0.05 to 0.5 µM; in assay [3], 0.1 to 0.5 µM.
Taken in the same sequence, the figures for `CC(=O)N1c2ccc(-c3cnn(CC(=O)N4CCOCC4)c3)cc2N(C(=O)OC(C)C)C[C@@H]1C` [Example I-654] were 0.1 to 1 µM, 0.05 to 0.5 µM and 0.1 to 0.5 µM.
For `CC(=O)N1c2ccc(-c3cnn(CC4CCC4)c3)cc2N(C(=O)C2CC2)C[C@@H]1C` [Example I-656], in that order: 0.1 to 1 µM, 0.05 to 0.5 µM and 0.1 to 0.5 µM.
Taken in the same sequence, the figures for `CC(=O)N1c2ccc(-c3cnn(CC4CCOCC4)c3)cc2N(C(=O)C2CC2)C[C@@H]1C` [Example I-657] were 0.1 to 1 µM, 0.05 to 0.5 µM and 0.1 to 0.5 µM.
For `CC(=O)N1c2ccc(-c3cnn(CCN4CCCS4(=O)=O)c3)cc2N(C(=O)C2CC2)C[C@@H]1C` [Example I-659], the figures for the IC50 in assay [1], in assay [2] and in assay [3] were 0.1 to 1 µM, 0.05 to 0.5 µM and over 0.5 µM, respectively.
For `CC(=O)N1c2ccc(-c3cnn(CC4(CO)COC4)c3)cc2N(C(=O)C2CC2)C[C@@H]1C` [Example I-662], the figures for the IC50 in assay [1], in assay [2] and in assay [3] were 0.1 to 1 µM, 0.05 to 0.5 µM and over 0.5 µM, respectively.
Taken in the same sequence, the figures for `CC(=O)N1c2ccc(-c3cnn(Cc4ccno4)c3)cc2N(C(=O)C2CC2)C[C@@H]1C` [Example I-663] were 0.1 to 1 µM, 0.05 to 0.5 µM and 0.1 to 0.5 µM.
For `CCNC(=O)Cn1cc(-c2ccc3c(c2)N(C(=O)OC(C)C)C[C@H](C)N3C(C)=O)cn1` [Example I-664], in that order: 0.1 to 1 µM, 0.05 to 0.5 µM and 0.1 to 0.5 µM.
Taken in the same sequence, the figures for `CC(=O)N1c2ccc(-c3cnn(Cc4cc(C)on4)c3)cc2N(C(=O)OC(C)C)C[C@@H]1C` [Example I-665] were 0.1 to 1 µM, 0.05 to 0.5 µM and 0.1 to 0.5 µM.
Consider `CC(=O)N1c2ccc(-c3cnn(CCF)c3)cc2N(C(=O)OC(C)C)C[C@@H]1C` [Example I-666], for which the IC50 was in the range of 0.1 to 1 µM in assay [1], 0.05 to 0.5 µM in assay [2] and 0.1 to 0.5 µM in assay [3].
For `CC(=O)N1c2ccc(-c3cnn(CC(=O)N4CCC4)c3)cc2N(C(=O)OC(C)C)C[C@@H]1C` [Example I-667], in that order: 0.1 to 1 µM, 0.05 to 0.5 µM and 0.1 to 0.5 µM.
As to `CC(=O)N1c2ccc(-c3cnn(Cc4noc(C)n4)c3)cc2N(C(=O)C2CC2)C[C@@H]1C` [Example I-668], the IC50 in assay [1] fell in the range of 0.1 to 1 µM; in assay [2] it was 0.05 to 0.5 µM; in assay [3], 0.1 to 0.5 µM.
In the case of `CC(=O)N1c2ccc(-c3cnn(Cc4cc(C)on4)c3)cc2N(C(=O)C2CC2)C[C@@H]1C` [Example I-669], the IC50 in assay [1] was 0.1 to 1 µM; in assay [2], 0.05 to 0.5 µM; in assay [3], over 0.5 µM.
In the case of `CC(=O)N1c2ccc(-c3cnn(CC(C)C)c3)cc2N(C(=O)C2CC2)CC1C` (stereo not drawn) [Example I-670], the values for the IC50 in assay [1], in assay [2] and in assay [3] were 0.1 to 1 µM, 0.05 to 0.5 µM and 0.1 to 0.5 µM, respectively.
Consider `CC(=O)N1c2ccc(-c3cnn(CCF)c3)cc2N(C(=O)C2CC2)C[C@@H]1C` [Example I-671], for which the values for the IC50 in assay [1], in assay [2] and in assay [3] were 0.1 to 1 µM, 0.05 to 0.5 µM and 0.1 to 0.5 µM, respectively.
Taken in the same sequence, the figures for `CC(=O)N1c2ccc(-c3cnn(CCCO)c3)cc2N(C(=O)C2CC2)C[C@@H]1C` [Example I-673] were 0.1 to 1 µM, 0.05 to 0.5 µM and 0.1 to 0.5 µM.
Taken in the same sequence, the figures for `CC(=O)N1c2ccc(-c3cnn(Cc4nonc4C)c3)cc2N(C(=O)OC(C)C)C[C@@H]1C` [Example I-677] were 0.1 to 1 µM, 0.05 to 0.5 µM and 0.1 to 0.5 µM.
On to `CC(=O)N1c2ccc(-c3cnn(CC4CC4(F)F)c3)cc2N(C(=O)OC(C)C)C[C@@H]1C` (stereo partly drawn) [Example I-678], for which the results for the IC50 in assay [1], in assay [2] and in assay [3] were 0.1 to 1 µM, 0.05 to 0.5 µM and 0.1 to 0.5 µM, respectively.
With `CC(=O)N1c2ccc(-c3cnn(CCC#N)c3)cc2N(C(=O)OC(C)C)C[C@@H]1C` [Example I-679], the figures for the IC50 in assay [1], in assay [2] and in assay [3] were 0.1 to 1 µM, 0.05 to 0.5 µM and 0.1 to 0.5 µM, respectively.
For `CC(=O)N1c2ccc(-c3cnn(Cc4ccnn4C)c3)cc2N(C(=O)OC(C)C)C[C@@H]1C` [Example I-680], in that order: 0.1 to 1 µM, 0.05 to 0.5 µM and 0.1 to 0.5 µM.
